{
  "source": "patent EP4656654A1",
  "about": "“SOMATOSTATIN PEPTIDE ANALOGUE, CHELATE AND USE THEREOF” (Qianhangjiang Pharmaceutical Co., Ltd., priority 2023, dated 2025)",
  "target": "T1, SSTR2 (Homo sapiens, UniProt P30874)",
  "T1 construct": "host or cells: CHO-K1",
  "T1 sequence (P30874 whole entry)": "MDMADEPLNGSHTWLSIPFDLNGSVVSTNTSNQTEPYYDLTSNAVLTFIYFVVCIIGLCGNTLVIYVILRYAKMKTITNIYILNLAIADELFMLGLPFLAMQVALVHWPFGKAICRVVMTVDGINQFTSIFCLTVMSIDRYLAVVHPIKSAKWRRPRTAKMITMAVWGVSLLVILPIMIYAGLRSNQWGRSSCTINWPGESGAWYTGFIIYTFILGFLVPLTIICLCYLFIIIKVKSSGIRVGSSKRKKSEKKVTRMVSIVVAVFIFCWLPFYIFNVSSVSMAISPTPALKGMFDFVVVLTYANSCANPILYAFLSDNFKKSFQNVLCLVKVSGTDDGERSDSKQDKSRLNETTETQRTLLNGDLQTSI",
  "assay": "competitive radioligand binding assay (125I-Tyr11-Somatostatin-14) on membranes of SSTR2-overexpressing CHO-K1 cells",
  "conditions": "for EC50: radioligand 125I-Tyr11-Somatostatin-14, SSTR2 CHO-K1 cell membrane; for Bottom: parameter A, bottom of fitted % Effect curve; for Top: parameter B, top of fitted % Effect curve; for Hill slope: parameter D of fitted curve",
  "method": "A competitive radioligand binding assay is utilized to measure the binding affinity of the somatostatin analogs of Formula II of the present invention. SSTR2-overexpressing CHO-K1 cells (Hunter Express SSTR2 CHO-K1; DiscoverX) are used in the radioligand competitive binding assay, with ^125I-Tyr^11-Somatostatin-14 (PerkinElmer) as the radioligand. The assay is performed as follows:\nSSTR2-overexpressing CHO-K1 cells (from Discover X) were cultured in complete medium (F12 basal medium with 10% FBS and 1% P/S [100 U/mL penicillin and 100 µg/mL streptomycin]) in a 37°C incubator with 5% CO2. When the cell confluency reached 80-90%, the cells were washed twice with pre-cooled PBS. The cells were then scraped off with a cell scraper and transferred to a 50 mL centrifuge tube, followed by centrifugation at 500×g and 4°C for 10 minutes. The supernatant was discarded, and the cell pellet was retained. Cell membrane lysis buffer (containing 25 mM HEPES, 1 mM EDTA, 2 mM MgCl2, and 1× protease inhibitor, pH = 7.4) was added at a ratio of 4 × 10^7 cells/10 mL and placed on ice for 10 minutes. The cells were then disrupted using an IKA disruptor. The operating procedure was 15,000 rpm for 10 seconds, repeated twice. The disrupted cell suspension was centrifuged at 4°C and 650×g for 5 minutes. The supernatant was transferred to a new centrifuge tube and centrifuged at 13,000 rpm and 4°C for 30 minutes. The supernatant was discarded, and the cell membrane pellet was resuspended in 1.6 mL of resuspension buffer, which was cell membrane lysis buffer supplemented with 10% sucrose. The cell membrane lysis buffer was repeatedly aspirated 4 times with a 27-gauge needle to break the DNA. The cell membrane extract was measured for protein concentration using the BCA method and aliquoted and stored at -80°C.\n• (1) Dilution of Compound: The assay buffer used contains 50 mM Hepes, 5 mM MgCl2, 1 mM CaCl2, and 0.5% BSA, pH = 7.4, and the buffer is filtered. The assay buffer is kept at 4°C. The ligand solution is serially diluted using an Agilent Bravo. Each test compound is diluted […] in succession. The eight binding concentrations of typical compounds are: 50 nM, 12.5 nM, 3.13 nM, 0.78 nM, 0.20 nM, 0.05 nM, 12.2 pM, and 3.05 pM. The affinity of each concentration is measured twice. Transfer 1 µL of each diluted compound to the corresponding wells of a 96-well V-bottom plate. • (2) Preparation of 125I-SST: The stock solution of 125I-SST was diluted to 3 nM (10×) with binding buffer (containing 50 mM Hepes, 5 mM MgCl2, 1 mM CaCl2, and 0.5% BSA, pH = 7.4, stored at 4°C). Transfer 10 µL of the solution to the corresponding compound well. • (3) Binding Experiment: The extracted cell membrane was diluted to 2.5 µg/90 µL with binding buffer and added to the corresponding wells. The mixture was incubated at 500 rpm on a 25°C shaker for 2 hours. The membrane complex was collected into a 0.5% PEI pre-coated GF/B plate using a Cell Harvester, and rinsed 3 times per well with 200 µL of pre-cooled buffer (4°C) (the same buffer used to dilute the compound). The plate was dried at 37°C for 2 hours. After adding 50 µL of liquid scintillation fluid (MicroScint20, Perkin Elmer) to each well and incubating for 30 minutes, the radioactivity was measured using a Topcount plate reader for 30 seconds per well.\nFor each compound, its 8-point reading data (2× of 8 readings) were imported into XLfit software and fitted to the sigmoidal curve. The EC50 of the compound for SSTR2 was calculated based on the mathematically optimal sigmoidal dose-response model equation: y−A + ((B−A))/(1 + (((C)/(x)))^D) [formula] where A represents the bottom of the curve, B represents the top of the curve, C represents the relative EC50, D represents the Hill slope, y represents the percentage effect value (% Effect) of the curve fitting, and x represents the molar concentration.",
  "key": {"[1]": {"conditions": "concentration x calculated from the fit at y = 50% effect, read-out: Absolute EC50"}, "[2]": {"conditions": "parameter C of sigmoidal fit, 8 concentrations in duplicate, read-out: Relative EC50"}},
  "note": "Like-named read-outs stand apart in the source and are kept apart here. Numbered stars: 1 amine (or outer) side, 2 acyl side, 3 side chain; on linkers, the order of the positions; unused ones are H or OH. Bridge positions count the residues as written; N and C are the ends. Square brackets hold non-standard residues; d marks the D form. Peptide text beside a SMILES is read from it. * marks the point of attachment. Phe(3-CH2NH2) = O=C([C@H](Cc1cccc(CN[*:3])c1)N[*:1])[*:2]; DOTA = O=C(O)CN1CCN(CC(=O)O)CCN(CC(=O)*)CCN(CC(=O)O)CC1; X2 = CC(C)(CN)CC[C@H](N[*:1])C(=O)[*:2]; X1 = CC(CN)CC[C@H](N[*:1])C(=O)[*:2]; Thr(ol) = C[C@@H](O)[C@H](N)CO",
  "data": [
    {"compound": "C[C@@H](O)[C@@H]1NC(=O)[C@H](C2CCCC(CN)C2)NC(=O)[C@@H](Cc2c[nH]c3ccccc23)NC(=O)[C@H](Cc2ccccc2)NC(=O)[C@@H](NC(=O)[C@H](N)Cc2ccccc2)CSSC[C@@H](C(=O)N[C@H](CO)[C@@H](C)O)NC1=O", "note": "(single isomer, unassigned) [Compound 4]", "values": [
      {"measurement": "EC50", "setting": "[1]", "result": 0.071, "unit": "nM"},
      {"measurement": "Bottom", "result": 11.7, "unit": "%"},
      {"measurement": "Top", "result": 99.9, "unit": "%"},
      {"measurement": "EC50", "setting": "[2]", "result": 0.091, "unit": "nM"},
      {"measurement": "Hill slope", "result": 1.07}
    ]},
    {"compound": "C[C@@H](O)[C@@H]1NC(=O)[C@H](C2CCCC(CN)C2)NC(=O)[C@@H](Cc2c[nH]c3ccccc23)NC(=O)[C@H](Cc2ccccc2)NC(=O)[C@@H](NC(=O)[C@H](N)Cc2ccccc2)CSSC[C@@H](C(=O)N[C@H](CO)[C@@H](C)O)NC1=O", "note": "(single isomer, unassigned) [Compound 7p2]", "values": [
      {"measurement": "Bottom", "result": 10.8, "unit": "%"},
      {"measurement": "Top", "result": 99.5, "unit": "%"},
      {"measurement": "Hill slope", "result": 1.08}
    ]},
    {"compound": "C[C@@H](O)[C@@H]1NC(=O)[C@H](CCCCCN)NC(=O)[C@@H](Cc2c[nH]c3ccccc23)NC(=O)[C@H](Cc2ccccc2)NC(=O)[C@@H](NC(=O)[C@H](N)Cc2ccccc2)CSSC[C@@H](C(=O)N[C@H](CO)[C@@H](C)O)NC1=O", "note": "[Compound 1]", "values": [
      {"measurement": "EC50", "setting": "[1]", "result": 0.74, "unit": "nM"},
      {"measurement": "EC50", "setting": "[2]", "result": 1.3, "unit": "nM"}
    ]},
    {"compound": "C[C@@H](O)[C@@H]1NC(=O)[C@H](CCC(C)(C)CN)NC(=O)[C@@H](Cc2c[nH]c3ccccc23)NC(=O)[C@H](Cc2ccccc2)NC(=O)[C@@H](NC(=O)[C@H](N)Cc2ccccc2)CSSC[C@@H](C(=O)N[C@H](CO)[C@@H](C)O)NC1=O", "note": "[Compound 2] (H-[dF]CF[dW][X2]TC[Thr(ol)]; disulfide 2-7)", "values": [
      {"measurement": "EC50", "setting": "[1]", "result": 1, "unit": "nM"},
      {"measurement": "EC50", "setting": "[2]", "result": 1.2, "unit": "nM"}
    ]},
    {"compound": "CC(CN)CC[C@@H]1NC(=O)[C@@H](Cc2c[nH]c3ccccc23)NC(=O)[C@H](Cc2ccccc2)NC(=O)[C@@H](NC(=O)[C@H](N)Cc2ccccc2)CSSC[C@@H](C(=O)N[C@H](CO)[C@@H](C)O)NC(=O)[C@H]([C@@H](C)O)NC1=O", "note": "(some centres unmarked) [Compound 3] (H-[dF]CF[dW][X1]TC[Thr(ol)]; disulfide 2-7)", "values": [
      {"measurement": "EC50", "setting": "[1]", "result": 0.25, "unit": "nM"},
      {"measurement": "EC50", "setting": "[2]", "result": 0.29, "unit": "nM"}
    ]},
    {"compound": "C[C@@H](O)[C@@H]1NC(=O)[C@H](Cc2cccc(CN)c2)NC(=O)[C@@H](Cc2c[nH]c3ccccc23)NC(=O)[C@H](Cc2ccccc2)NC(=O)[C@@H](NC(=O)[C@H](N)Cc2ccccc2)CSSC[C@@H](C(=O)N[C@H](CO)[C@@H](C)O)NC1=O", "note": "[Compound 5] (H-[dF]CF[dW][Phe(3-CH2NH2)]TC[Thr(ol)]; disulfide 2-7)", "values": [
      {"measurement": "Bottom", "result": 8.7, "unit": "%"},
      {"measurement": "Top", "result": 100.0, "unit": "%"},
      {"measurement": "Hill slope", "result": 0.84}
    ]},
    {"compound": "C[C@@H](O)[C@H](NC(=O)[C@@H]1CSSC[C@H](NC(=O)[C@@H](Cc2ccccc2)NC(=O)CN2CCN(CC(=O)O)CCN(CC(=O)O)CCN(CC(=O)O)CC2)C(=O)N[C@@H](Cc2ccc(O)cc2)C(=O)N[C@H](Cc2c[nH]c3ccccc23)C(=O)N[C@@H](CCC(C)(C)CN)C(=O)N[C@@H]([C@@H](C)O)C(=O)N1)C(=O)O", "note": "[Compound 6] ({DOTA}-[dF]CY[dW][X2]TCT-OH; disulfide 2-7; N-terminus and C-terminus assumed)", "values": [
      {"measurement": "Bottom", "result": 13.2, "unit": "%"},
      {"measurement": "Top", "result": 98.3, "unit": "%"},
      {"measurement": "Hill slope", "result": 0.88}
    ]}
  ]
}
